Measured values published in PubChem BioAssay (NCI).
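All cell lines were grown in 96-well plates and treated with compound for 48 hours. GI50 marks 50% less growth. TGI is the concentration that stops growth completely.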

Experiments:
Experiment in all cases: growth of human tumour cells (NCI), 48 h
CCRF-CEM leukemia = test system: CCRF-CEM leukemia
HCC-2998 colon = test system: HCC-2998 colon
HT29 colon = test system: HT29 colon
K-562 leukemia = test system: K-562 leukemia
LOX IMVI melanoma = test system: LOX IMVI melanoma
MDA-MB-435 = test system: MDA-MB-435
NCI-H522 lung = test system: NCI-H522 lung
PC-3 prostate = test system: PC-3 prostate
SK-OV-3 ovarian = test system: SK-OV-3 ovarian
SNB-19 CNS = test system: SNB-19 CNS

| SMILES | GI50 (CCRF-CEM leukemia) [µM] | TGI (CCRF-CEM leukemia) [µM] | GI50 (HCC-2998 colon) [µM] | TGI (HCC-2998 colon) [µM] | GI50 (HT29 colon) [µM] | TGI (HT29 colon) [µM] | GI50 (K-562 leukemia) [µM] | TGI (K-562 leukemia) [µM] | GI50 (LOX IMVI melanoma) [µM] | TGI (LOX IMVI melanoma) [µM] | GI50 (MDA-MB-435) [µM] | TGI (MDA-MB-435) [µM] | GI50 (NCI-H522 lung) [µM] | TGI (NCI-H522 lung) [µM] | GI50 (PC-3 prostate) [µM] | TGI (PC-3 prostate) [µM] | GI50 (SK-OV-3 ovarian) [µM] | TGI (SK-OV-3 ovarian) [µM] | GI50 (SNB-19 CNS) [µM] | TGI (SNB-19 CNS) [µM] |
| --- | --- | --- | --- | --- | --- | --- | --- | --- | --- | --- | --- | --- | --- | --- | --- | --- | --- | --- | --- | --- |
| COc1ccc(-c2nc(-c3nc4ccc(C)cc4[nH]3)cc3c2[nH]c2ccccc23)cc1 | 2.94 | 18.7 | 7.61 | > 100 | 5.29 | > 100 | 3.09 | > 100 | 3.34 | 17.1 | 3.94 | > 100 | 4.39 | 42.1 | 2.74 | > 100 | 61 | > 100 | 7.28 | > 100 |
| COc1ccc(-c2cncn2-c2cc(OC)c(OC)c(OC)c2)cc1 | 0.843 | 18.5 | 0.0779 | 1.37 | 0.153 | > 100 | 0.443 | > 100 | 0.857 | > 80.9 | 0.0178 | 0.0567 | 0.019 | 0.283 | 0.552 | > 40 | 0.256 | > 86.5 | 0.349 | > 100 |
| O=C1CSC(c2ccccc2Cl)N1c1nnc(Cn2cnnc2)o1 (stereo not given) | 5.83 | > 100 | 12.3 | 27.2 | 3.35 | 13.9 | 3.33 | 16.2 | 7.43 | 21 | 2.2 | 5.96 | 10.4 | 38 | 11.6 | > 100 | 14.9 | 75.7 | – | – |
| COc1cc(C2C3=C(COC3=O)N(CCO)c3cc4c(cc32)OCCO4)cc(OC)c1OC (stereo not given) | 0.176 | > 50 | 0.127 | 0.335 | 0.166 | – | 0.177 | > 50 | 0.286 | > 50 | 0.103 | 0.256 | 0.0626 | 0.185 | 0.185 | > 50 | 0.224 | > 14.5 | 0.717 | > 50 |
| CCCc1cc(=O)n2c(C(=O)Nc3ccc(F)cc3)c(C(=O)Nc3ccc(F)cc3)sc2n1 | > 160 | > 160 | > 160 | > 160 | 47.1 | > 160 | 10.6 | > 160 | 45.5 | > 160 | > 160 | > 160 | 73.3 | > 160 | 30.1 | > 160 | 41.7 | > 160 | 117 | > 160 |
| CC/C(Cc1ccccc1)=C(\c1ccc(OCCN2CCCC2)cc1)c1ccc(OC(=O)NCc2ccccc2)cc1 | 2.83 | 7.56 | 1.51 | 2.94 | 1.82 | 3.47 | 1.7 | 4.4 | 1.71 | 3.1 | 1.67 | 3.12 | 1.99 | 4.14 | 1.86 | 3.55 | 11.6 | 24.6 | 2.15 | 4.58 |
| NC(=O)c1ccc(Oc2nccc(-c3c(-c4ccc(F)cc4)ncn3C3CCNCC3)n2)cc1 | > 25 | > 25 | > 25 | > 25 | > 25 | > 25 | > 25 | > 25 | > 25 | > 25 | > 25 | > 25 | > 25 | > 25 | > 25 | > 25 | > 25 | > 25 | > 25 | > 25 |
| CC(=O)OC12C=C(C)C(C(C)C1)C1C(=O)N(CCN3CCCCC3)C(=O)C12 (stereo not given) | > 50 | > 50 | > 50 | > 50 | > 50 | > 50 | > 50 | > 50 | > 50 | > 50 | > 50 | > 50 | > 50 | > 50 | > 50 | > 50 | > 50 | > 50 | > 50 | > 50 |
| S=C1Cc2c(-c3ccc(Br)cc3)cc(-c3ccccc3)nc2-c2ccccc2N1 | – | 11.2 | – | 11.3 | – | 5.81 | – | > 100 | – | 12.6 | – | 20.6 | – | 8.04 | – | 23.3 | – | 3.27 | – | 3.52 |
| COC(=O)c1c(-c2cccs2)oc(-c2cccs2)c1C(=O)OC | 27.4 | > 100 | 36.2 | > 82.8 | 60.2 | > 100 | 44.9 | > 100 | 31.9 | > 63.1 | 26 | 87 | 25.5 | 69.7 | 26.3 | > 100 | > 100 | > 100 | > 100 | > 100 |
| COc1ccc(/C=C/c2c(C(=O)/C=C/c3ccc(C(F)(F)F)cc3)c(C)nc3ccccc23)cc1 | 0.425 | > 100 | 1.51 | 3.07 | 1.13 | 6.6 | 2.05 | > 100 | 1.37 | 2.74 | 1.89 | 3.72 | 1.67 | 5.69 | 1.83 | 5.58 | 2.24 | 5.82 | 1.62 | 3.05 |
| CSc1nc2nc3c(nc2c(=O)n1C)C(=O)c1ccccc1C3=O | 0.259 | 0.794 | 0.275 | 0.855 | 0.253 | 0.637 | 0.272 | 1.32 | 0.128 | 0.315 | 0.0218 | 0.0471 | 0.16 | 0.332 | 0.269 | 1.46 | 0.774 | 2.04 | 0.304 | 1.28 |
| CCCCC#Cc1c(I)n(C)c(=O)[nH]c1=O | 1.74 | 3.68 | 1.58 | 2.93 | 2.27 | 5.08 | 1.82 | 3.46 | 1.62 | 2.97 | 1.64 | 3.88 | 1.56 | 3.25 | 12.8 | 25.4 | 20.3 | 34.6 | 14.6 | 29.1 |
| C#C[C@@]1(O)[C@@H](CO)O[C@@H](n2cc(I)c3c(N)ncnc32)[C@@H]1O | 0.271 | > 100 | 0.243 | 3.01 | 0.0237 | 4.75 | 0.064 | > 100 | 0.0812 | 1.22 | 0.473 | 12.8 | 0.0993 | 0.6 | 0.0756 | > 38.1 | 0.0343 | 0.729 | 0.0996 | > 50 |
| O=C(/C=C/C=C/c1ccccc1)c1ccco1 | 10.2 | 33.3 | 15 | 28.3 | 16.7 | 33.5 | 10.1 | 29.6 | 13.7 | 27.9 | 13.1 | 29.2 | 13.2 | 27 | 16.4 | 53 | 28.8 | 84.6 | 15.2 | 31.9 |
| CN(C)CC1CC/C(=C\c2ccc3c(c2)OCO3)C1=O (stereo not given) | – | 19.7 | – | 50.7 | – | 59 | – | 11.4 | – | 3.72 | – | 4.43 | – | 8.51 | – | 27.1 | – | > 57 | – | 36 |
| C#CC1=CC(=O)C(OC)=CC1=O | – | 30.8 | – | 81.5 | – | 62 | – | > 100 | – | 40 | – | 34.8 | – | 4.2 | – | > 100 | – | > 100 | – | > 100 |
| ClCc1ccccc1Cn1cnc2ncnc(Cl)c21 | 1.45 | 3.53 | 2.26 | 4.22 | 3.93 | > 100 | 2.23 | 5.86 | 1.34 | 3.07 | 1.95 | 3.84 | 2.83 | 7.64 | 4.51 | 19.2 | 7.57 | 26.8 | 7.3 | > 100 |
| [N-]=[N+]=NCCCn1c2c(c3ccc([N+](=O)[O-])cc3c1=O)C(=O)c1cc(Br)ccc1-2 | 0.545 | > 100 | > 100 | > 100 | > 100 | > 100 | > 100 | > 100 | > 100 | > 100 | > 100 | > 100 | > 100 | > 100 | > 100 | > 100 | > 100 | > 100 | > 100 | > 100 |
| CNCCCNc1nc2ccccc2c2c(=O)c3cc(OC)ccc3sc12 | 2.39 | 6.08 | 1.82 | 3.49 | 1.72 | 3.56 | 2 | 5.38 | 1.57 | 2.93 | 1.8 | 3.24 | 1.84 | 3.88 | 1.74 | 3.45 | – | – | 1.68 | 3.18 |
